Where a name gives a salt, the structure may show the parent alone.
What was measured:
[1] = system: longitudinal muscle of human vas deferens; assay: IC50 against contractions evoked by high K+ (120 mM) in the presence of FPL 64176, longitudinal muscle strips; conditions: Homo sapiens; contractions evoked by K+ (120 mM) in the presence of FPL 64176 (1 μM); means ± S.E.M.
Excerpt: (§1) Human vas deferens specimens were obtained after elective vasectomies of healthy fertile men. College ethical approval and the consent of patients were obtained. The specimens were placed in ice-cold Krebs' medium, dissected-free of connective tissue/blood vessels and cut longitudinally into strips (longitudinal muscle preparations; 5-10 mm long & 1 mm wide) or transversely into rings (circular muscle preparations; 3 mm in length). The longitudinal and circular muscle preparations were then set up for tension recording (resting tension 5-7 mN) in a Perspex chamber superfused at 2 ml per min with Krebs' medium (36° C.) composed of (mM): NaCl, 118.8; NaHCO3, 25; KCl, 4.7; CaCl2.2H2O, 2.5; KH2PO4, 1.2; MgSO4.7H2O, 1.2; glucose, 11.1; ascorbic acid 0.1 and continuously gassed with 95% O2 and 5% CO2. Contractile responses were recorded via a Harvard-type force-displacement transducer. The analog signals were digitised using CIO-Das 16/Jr data acquisition software (Amplicon Liveline, Brighton, UK) and re-plotted on a microcomputer.
(§2) Tissues were equilibrated for 180 min in Krebs' medium containing inhibitors of extraneuronal and neuronal reuptake of noradrenaline, oestradiol (1 μM) and desipramine (0.1 μM) respectively, inhibitors of catechol-O-methyltransferase and monoamine oxidase, tropolone (10 μM) and iproniazid (10 μM) respectively and the β-adrenoceptor blocker, propranolol (1 μM). At the end of the equilibration period, the tissues were stimulated with noradrenaline (100 μM). […] After a contact time of 30-40 min in this medium, different experimental protocols (described below) were adopted in order to • (a) Elucidate the contractile actions of L-type Ca^2+ agonists such as FPL 64176 or Bay K 8644. In these experiments, tissues were exposed to FPL 64176 (0.1-10 μM added cumulatively) or in separate experiments Bay K 8644 (0.1-10 μM added cumulatively). • (b) Investigate the effects of various diphenylalkylamines and conventional L-type Ca^2+ antagonists (methoxyverapamil or nifedipine) on contractions evoked by high concentrations of extracellular potassium (high [K^+]o) in the presence of L-type Ca^2+ agonists, FPL 64176 (1 μM) or Bay K 8644 (1 μM). In this protocol, tissues were stimulated with high [K^+]O (10, 30 and 120 mM at 10-15 min intervals) in normal Krebs' medium, then exposed to L-type Ca^2+ agonists for 20-30 min and subsequently stimulated with high [K^+]O (10, 30 and 120 mM) in the presence of the drugs. These provided the initial responses. Following this and in the continuous presence of the L-type Ca^2+ agonists, the tissues were exposed additionally to L-type Ca^2+ antagonists (conventional or diphenylalkylamines) or drug-free vehicle medium. After contact times of 25-50 min the tissues were stimulated, first with high [K^+]O (either 30 mM or 120 mM) in order to take account of the well-documented use-dependent action of the diphenylalkylamine Ca^2+ antagonists. Following recovery from the test contraction and after a further 30-40 min, the tissues were then stimulated with high [K^+]o (10, 30 and 120 mM). This protocol is illustrated in FIGS. 3 and 4. The resulting contractions were measured (see below) and expressed as a percentage of corresponding initial responses to high [K^+]o evoked in the presence of L-type Ca^2+ agonists (i.e. before exposure to L-type Ca^2+ antagonists). […] Subsequent analysis (see below) was between contractions of drug-treated tissues and time-matched controls • (c) Determine the inhibitory potencies (IC50 values) of various diphenylalkylamines and phenothiazines and conventional L-type Ca^2+ antagonists (nifedipine and methoxyverapamil) against contractions evoked in longitudinal and circular muscle of human vas deferens by high [K^+]o (120 mM) in the presence of FPL 64176. In these experiments, tissues were stimulated with high [K^+]o (120 mM); sequentially in normal Krebs' medium and after 25-30 min exposure to the L-type Ca^2+ agonist, FPL 64176, (1 μM, Initial response). […]

[2] = system: circular muscle of human vas deferens; assay: IC50 against contractions evoked by high K+ (120 mM) in the presence of FPL 64176, circular muscle rings; conditions: Homo sapiens; contractions evoked by K+ (120 mM) in the presence of FPL 64176 (1 μM); means ± S.E.M.
Excerpt: as §1, §2

[3] = system: circular muscle of human vas deferens; assay: Inhibition at fixed concentration of contractions evoked by high K+ in the presence of FPL 64176, circular muscle; conditions: [K+]o 30 mM in the presence of FPL 64176 (1.0 μM); drug 10 μM; hydrochloride
Excerpt: as §1
Tissues were equilibrated for 180 min in Krebs' medium containing inhibitors of extraneuronal and neuronal reuptake of noradrenaline, oestradiol (1 μM) and desipramine (0.1 μM) respectively, inhibitors of catechol-O-methyltransferase and monoamine oxidase, tropolone (10 μM) and iproniazid (10 μM) respectively and the β-adrenoceptor blocker, propranolol (1 μM). At the end of the equilibration period, the tissues were stimulated with noradrenaline (100 μM). […] After a contact time of 30-40 min in this medium, different experimental protocols (described below) were adopted in order to • (a) Elucidate the contractile actions of L-type Ca^2+ agonists such as FPL 64176 or Bay K 8644. In these experiments, tissues were exposed to FPL 64176 (0.1-10 μM added cumulatively) or in separate experiments Bay K 8644 (0.1-10 μM added cumulatively). • (b) Investigate the effects of various diphenylalkylamines and conventional L-type Ca^2+ antagonists (methoxyverapamil or nifedipine) on contractions evoked by high concentrations of extracellular potassium (high [K^+]o) in the presence of L-type Ca^2+ agonists, FPL 64176 (1 μM) or Bay K 8644 (1 μM). In this protocol, tissues were stimulated with high [K^+]O (10, 30 and 120 mM at 10-15 min intervals) in normal Krebs' medium, then exposed to L-type Ca^2+ agonists for 20-30 min and subsequently stimulated with high [K^+]O (10, 30 and 120 mM) in the presence of the drugs. These provided the initial responses. Following this and in the continuous presence of the L-type Ca^2+ agonists, the tissues were exposed additionally to L-type Ca^2+ antagonists (conventional or diphenylalkylamines) or drug-free vehicle medium. After contact times of 25-50 min the tissues were stimulated, first with high [K^+]O (either 30 mM or 120 mM) in order to take account of the well-documented use-dependent action of the diphenylalkylamine Ca^2+ antagonists. Following recovery from the test contraction and after a further 30-40 min, the tissues were then stimulated with high [K^+]o (10, 30 and 120 mM). This protocol is illustrated in FIGS. 3 and 4. The resulting contractions were measured (see below) and expressed as a percentage of corresponding initial responses to high [K^+]o evoked in the presence of L-type Ca^2+ agonists (i.e. before exposure to L-type Ca^2+ antagonists). […]

[4] = system: longitudinal muscle of human vas deferens; assay: Inhibition of contractions evoked by high K+ in the presence of Bay K 8644, longitudinal muscle; conditions: [K+]o 30 mM & 120 mM in the presence of Bay K 8644 (1 μM)
Method: (§3) Human vas deferens specimens were obtained after elective vasectomies of healthy fertile men. College ethical approval and the consent of patients were obtained. The specimens were placed in ice-cold Krebs' medium, dissected-free of connective tissue/blood vessels and cut longitudinally into strips (longitudinal muscle preparations; 5-10 mm long & 1 mm wide) or transversely into rings (circular muscle preparations; 3 mm in length). […] Contractile responses were recorded via a Harvard-type force-displacement transducer. […]
(§4) Tissues were equilibrated for 180 min in Krebs' medium containing inhibitors of extraneuronal and neuronal reuptake of noradrenaline, oestradiol (1 μM) and desipramine (0.1 μM) respectively, inhibitors of catechol-O-methyltransferase and monoamine oxidase, tropolone (10 μM) and iproniazid (10 μM) respectively and the β-adrenoceptor blocker, propranolol (1 μM). […] The resulting contractions were measured (see below) and expressed as a percentage of corresponding initial responses to high [K^+]o evoked in the presence of L-type Ca^2+ agonists (i.e. before exposure to L-type Ca^2+ antagonists). […]

[5] = system: circular muscle of human vas deferens; assay: Inhibition of contractions evoked by high K+ in the presence of Bay K 8644, circular muscle; conditions: [K+]o 30 mM & 120 mM in the presence of Bay K 8644 (1 μM)
Method: as §3, §4

| Structure (SMILES) | IC50 [1] [µM] | IC50 [2] [µM] | inhibition of circular muscle contractions compared to time-matched controls [3] [%] | inhibition of longitudinal muscle contractions relative to time-matched controls ([4]; drug 10 μM) | inhibition of circular muscle contractions relative to time-matched controls ([5]; drug 10 μM) | inhibition at 1 µM ([4]; Homo sapiens, drug 1 μM, read-out: inhibition of longitudinal muscle contractions relative to time-matched controls) [%] | inhibition at 1 µM ([5]; Homo sapiens, drug 1 μM, read-out: inhibition of circular muscle contractions relative to time-matched controls) [%] |
| --- | --- | --- | --- | --- | --- | --- | --- |
| CC(NCCC(c1ccccc1)c1ccccc1)c1ccccc1 (stereo not drawn) [Fendiline, fendiline hydrochloride] | 3.8 ± 0.9 | 17.4 ± 5.8 | 35 | 73-80% | 0-20% | – | – |
| COC(=O)C1=C(C)NC(C)=C(C(=O)OC)C1c1ccccc1[N+](=O)[O-] [Nifedipine, nifedipine] | 0.00216 ± 0.0008 | 0.00219 ± 0.0005 | – | – | – | 66 to 73 | 66 to 73 |

Reference: patent US8927579B2, “Male contraceptive” (priority 2007, dated 2015)
